Test results: patent publication US20200383970A1, “Morphinan Derivatives with High Oral Bioavailability” (Alkermes Pharma Ireland Limited, priority 2009, published 2020)
Like-named read-outs stand apart in the source and are kept apart here.

Legend:
[1] = Pharmacokinetic analysis following PO administration in dog; assay type: in vivo
Experimental: Example 2: Pharmacokinetic analysis of Compound 1: The PK of Compound 1 and the reference compound Naltrexone was determined following IV (1 mg/kg) and PO (10 mg/kg or 1 mg/kg) administration. Concentrations of Compound 1 and naltrexone were determined by LC-MS/MS. The PK parameters were determined by noncompartmental analysis using WiNonlin (v5.1). FIGS. 2-4 show the PK profiles of naltrexone and Compound 1.

[2] = Pharmacokinetic analysis following PO administration in rat
[3] = Pharmacokinetic analysis following PO administration in monkey
[4] = dog, oral dose 1 (mg); Reuning et at. J Pharm Sci. 1979; cited from earlier work

With `NC(=O)c1ccc2c(c1O)[C@]13CCN(CC4CC4)[C@H](C2)[C@]1(O)CCC(=O)C3` [Compound 1] as the compound, how does the AUC(0-inf) ([1]; dog, in vivo, po, 1 mg/kg) read?
The AUC(0-inf) was 491 ng·h/mL.

And the half-life ([1]; dog, in vivo, po, 1 mg/kg)?
Its half-life is 3.2 h.

And the “improvement in oral bioavailability in comparison with naltrexone” value (shortened to “improvement in oral bioavailability”) ([1]; dogs, oral administration)?
Its value is “over 50 fold”.

And the Cmax ([1]; in vivo, 1 mg/kg, dog, oral dose 1 (mg))?
Its Cmax is 104 ng/mL.

What about the bioavailability ([1]; in vivo, 1 mg/kg, dog, oral dose 1 (mg), read-out: Bioavailability (F %)) of the same compound?
The bioavailability was 66%.

What about the AUC(0-inf) ([2]; rat, in vivo, po, 10 mg/kg) of the same compound?
The AUC(0-inf) was 1320 ng·h/mL.

What about the Cmax ([2]; rat, in vivo, po, 10 mg/kg) of the same compound?
Its Cmax is 929 ng/mL.

What about the bioavailability ([2]; rat, in vivo, po, 10 mg/kg) of the same compound?
Its bioavailability is 15%.

What about the half-life ([2]; rat, in vivo, po, 10 mg/kg) of the same compound?
The half-life was 1.2 h.

What about the “improvement in oral bioavailability” value ([2]; rats, oral administration) of the same compound?
The value was 4 fold.

And the AUC(0-inf) ([3]; monkey, in vivo, po, 10 mg/kg)?
The AUC(0-inf) was 4470 ng·h/mL.

And the Cmax ([3]; monkey, in vivo, po, 10 mg/kg)?
Its Cmax is 627 ng/mL.

And the bioavailability ([3]; monkey, in vivo, po, 10 mg/kg)?
Its bioavailability is 68%.

And the half-life ([3]; monkey, in vivo, po, 10 mg/kg)?
The half-life was 5.4 h.

What about the “improvement in oral bioavailability” value ([3]; monkeys, oral administration) of the same compound?
The value was “over 4 fold”.

Which “AUC∞” value [4] does the source give for `O=C1CC[C@@]2(O)[C@H]3Cc4ccc(O)c5c4[C@@]2(CCN3CC2CC2)[C@H]1O5` [Naltrexone, reference compound] here?
The value was 4.2 ng·h/mL.

And the “Bioavailability (F %)” value [4]?
Its value is 1.1%.

And the Cmax [4]?
The Cmax was 2.7 ng/mL.

And the AUC(0-inf) ([2]; rat, in vivo, po, 10 mg/kg)?
Its AUC(0-inf) is 150 ng·h/mL.

And the Cmax ([2]; rat, in vivo, po, 10 mg/kg)?
The Cmax was 61.6 ng/mL.

And the bioavailability ([2]; rat, in vivo, po, 10 mg/kg)?
The bioavailability was 3%.

What about the AUC(0-inf) ([3]; monkey, in vivo, po, 10 mg/kg) of the same compound?
The AUC(0-inf) was 54 ng·h/mL.

What about the Cmax ([3]; monkey, in vivo, po, 10 mg/kg) of the same compound?
Its Cmax is 13 ng/mL.

What about the bioavailability ([3]; monkey, in vivo, po, 10 mg/kg) of the same compound?
The bioavailability was 13%.
